# Laboratory results taken from publication PMC7136958, “Targeting the pregnane X receptor using microbial metabolite mimicry” (EMBO Molecular Medicine, 2020).
# “And” between values parts separate entries of the source, which are not always exact repeats. Equal entries are not always repeated.
# What was measured:
# [1] = target: T1, PXR (Homo sapiens, UniProt O75469); test: PXR reporter (p3A4-luc luciferase) assay in LS180 cells transiently transfected with wild-type PXR; conditions: for FOLD INDUCTION of PXR reporter luciferase activity: 24 h, over UT; for fold induction at 0.001 µM / fold induction at 0.01 µM / fold induction at 0.1 µM / fold induction at 1 µM / fold induction at 10 µM / fold induction at 25 µM: LS180, read-out: FOLD INDUCTION of PXR reporter luciferase activity
# T1 sequence (O75469 1-434): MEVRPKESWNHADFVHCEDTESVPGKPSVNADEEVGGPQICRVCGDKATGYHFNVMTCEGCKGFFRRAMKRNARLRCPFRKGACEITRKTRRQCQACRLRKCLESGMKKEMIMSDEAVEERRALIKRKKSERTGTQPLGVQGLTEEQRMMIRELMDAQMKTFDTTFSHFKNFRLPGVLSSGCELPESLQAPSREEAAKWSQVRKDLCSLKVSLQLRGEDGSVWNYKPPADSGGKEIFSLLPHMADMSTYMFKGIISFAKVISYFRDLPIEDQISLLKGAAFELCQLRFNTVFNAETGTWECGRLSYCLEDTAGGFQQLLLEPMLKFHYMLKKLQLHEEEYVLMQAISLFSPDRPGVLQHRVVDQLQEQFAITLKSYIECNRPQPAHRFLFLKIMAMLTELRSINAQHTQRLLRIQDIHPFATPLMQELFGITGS
# Experimental: Incubations were performed in four technical replicates. After the treatments, cells were lysed and luciferase activity was measured on Tecan Infinite M200 Pro plate reader (Schoeller Instruments, Prague, Czech Republic). The data are expressed as fold induction ± SD of luciferase activity over the control cells (agonistic mode—in the absence of a model ligand) or as a percentage of maximal activation ± SD (antagonistic mode—in the presence of a model ligand). […] For all the transfection experiments, specifically multiplexed transfections, the control wells were mock‐transfected ([…]). However, to exclude non‐specific binding of PXR (or other factors) upstream of the luciferase gene within non‐PXR‐binding elements, we performed pilot experiments in different cell passages (P11, P14, and P17) of LS174T cells using a mock luciferase plasmid (luciferase not containing an upstream PXR‐binding element of the CYP3A4 promoter).
# [2] = target: T2, AhR (Homo sapiens, UniProt P35869); test: AhR reporter assay, HepG2 cells stably expressing pCYP1A1 luciferase (AZ-AHR); type: cell-based; conditions: AZ-AHR cells, fold vs DMSO; for fold induction at 24 h, 0.001 µM / fold induction at 24 h, 0.01 µM / fold induction at 24 h, 0.1 µM / fold induction at 24 h, 1 µM / fold induction at 24 h, 10 µM: human
# T2 construct: endogenous in cells; host or cells: AZ-AHR (HepG2)
# T2 sequence (P35869 11-848): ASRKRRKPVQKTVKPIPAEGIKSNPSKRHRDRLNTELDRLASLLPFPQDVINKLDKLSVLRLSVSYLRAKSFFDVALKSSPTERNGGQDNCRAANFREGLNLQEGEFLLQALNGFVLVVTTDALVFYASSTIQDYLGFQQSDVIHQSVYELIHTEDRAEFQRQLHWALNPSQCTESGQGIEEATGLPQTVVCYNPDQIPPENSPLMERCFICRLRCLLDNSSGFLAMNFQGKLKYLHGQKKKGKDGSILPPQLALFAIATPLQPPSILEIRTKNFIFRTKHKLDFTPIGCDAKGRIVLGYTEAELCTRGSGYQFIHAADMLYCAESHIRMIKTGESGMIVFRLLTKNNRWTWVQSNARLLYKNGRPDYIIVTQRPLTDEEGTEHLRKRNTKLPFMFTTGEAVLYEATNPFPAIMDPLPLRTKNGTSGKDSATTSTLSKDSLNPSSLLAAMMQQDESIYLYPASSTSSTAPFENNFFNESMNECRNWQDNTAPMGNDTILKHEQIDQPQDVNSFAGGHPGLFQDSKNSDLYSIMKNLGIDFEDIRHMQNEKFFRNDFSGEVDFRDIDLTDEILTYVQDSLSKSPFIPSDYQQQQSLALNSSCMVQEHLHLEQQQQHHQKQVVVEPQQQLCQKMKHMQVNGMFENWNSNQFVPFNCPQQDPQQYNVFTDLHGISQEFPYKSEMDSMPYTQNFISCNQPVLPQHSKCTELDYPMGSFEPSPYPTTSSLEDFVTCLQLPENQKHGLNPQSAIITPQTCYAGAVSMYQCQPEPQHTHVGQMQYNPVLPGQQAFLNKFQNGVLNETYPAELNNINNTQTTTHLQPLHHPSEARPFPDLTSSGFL
# Experimental: Incubations were performed in four technical replicates.
# [3] = system: PXR occupancy of CYP3A4 and MDR1 promoter; test: Chromatin immunoprecipitation (ChIP) in PXR-transfected LS174T cells; conditions: 10 μM
# Experimental: LS174T cells were transfected with pSG5‐PXR (2 μg/plate/1 × 10^7 cells). […] Briefly, cells were chemically cross‐linked with formaldehyde in culture media for 15 min at room temperature. […] Cells were rinsed twice with cold PBS (phosphate‐buffered saline) (pH 7.5) and scraped in PBS supplemented with PIC (protease inhibitor cocktail).
# Cell pellets were collected and immediately resuspended in immunoprecipitation (IP) buffer (150 mM NaCl (sodium chloride), 50 mM Tris–HCl at pH 7.5, 5 mM EDTA (ethylenediaminetetraacetic acid), 0.5% NP‐40, 1% Triton X‐100). The nuclei were centrifuged at 12,000 × g for 1 min and resuspended in fresh IP buffer. Chromatin was sheared by sonication to an average size of 0.2‐0.9 kb. Lysates were cleared by centrifugation at 12,000 × g for 10 min. […] 10% (wt/vol) Chelex 100 was added to the beads followed by boiling of the suspension and centrifugation at 12,000 × g for 1 min to obtain chromatin.
# Purified chromatin DNA was used to perform RT–qPCR. […] Data were analyzed using SDS 2.2.1 program (ABI Biotechnology).
# [4] = system: NF-κB; test: NF-κB nuclear translocation (immunofluorescence) in Caco-2 cells; type: cell-based, human; conditions: 25 μM, with cytokines, 2 or 12 h
# Experimental: HIOs and Caco‐2 were exposed to a pro‐inflammatory cytokine cocktail (10 ng/ml IFN‐γ, 10 ng/ml TNF‐α, 50 ng/ml IL‐1β) for 2–24 h in combination with DMSO or FKK5 and FKK6 compounds (10 and 25 μm). Relative mRNA levels of IL‐8 and IL‐6 were determined using quantitative real‐time PCR, with normalization to GAPDH. RNA was isolated using an RNeasy Mini Kit (Qiagen) as per the manufacturer's instructions. On column DNase (Qiagen) was used to remove any contaminating DNA. Next, cDNA was formed using iScript cDNA Synthesis Kit (Bio‐Rad) and 100 ng RNA. qRT–PCR was performed with SsoAdvanced Universal SYBR Green Kit (Bio‐Rad). The following primers were used: IL‐8 Forward: […]; IL‐8 Reverse: […]; IL‐6 Forward: […]; IL‐6 Reverse: […]; GAPDH Forward: […]; GAPDH Reverse: […]. For immunofluorescent staining of NF‐ĸB translocation to the cell nucleus, HIOs and Caco‐2 cell monolayers were fixed in 4% formaldehyde (in 1 × PBS) overnight at 4°C. The formaldehyde was removed by washing with 1 × PBS, and an antigen retrieval step was performed by incubating in 10 mM sodium citrate buffer in a vegetable steamer for 20 min. The samples were then blocked with normal donkey serum (10% in PBS with 0.3% Triton X‐100) for 1 h. […]
Compound,aver (mean luciferase signal of H1-H4) ([1]; 1 nM),aver (mean luciferase signal of H1-H4) ([1]; 10 nM),aver (mean luciferase signal of H1-H4) ([1]; 100 nM),aver (mean luciferase signal of H1-H4) ([1]; 1 uM),aver (mean luciferase signal of H1-H4) ([1]; 10 uM),aver (mean luciferase signal of H1-H4) ([1]; 25 uM),NF-κB localisation [4],fold induction at 0.001 µM [1],fold induction at 0.01 µM [1],fold induction at 0.1 µM [1],fold induction at 1 µM [1],fold induction at 10 µM [1],fold induction at 25 µM [1],"fold induction at 24 h, 0.001 µM ([2]; 1 nM)","fold induction at 24 h, 0.01 µM ([2]; 10 nM)","fold induction at 24 h, 0.1 µM ([2]; 100 nM)","fold induction at 24 h, 1 µM ([2]; 1µM)","fold induction at 24 h, 10 µM ([2]; 10 µM)",other results
O=S(=O)(c1ccccc1)n1c(C(O)c2ccncc2)cc2ccccc21 (racemic) [FKK1],3470.0,3768.8,3738.8,28708.8,56319.0,51971.3,,,,,,,,,,,,,FOLD INDUCTION of PXR reporter luciferase activity ([1]; 1 nM): 1.6 fold; FOLD INDUCTION of PXR reporter luciferase activity ([1]; 10 nM): 1.8 fold; FOLD INDUCTION of PXR reporter luciferase activity ([1]; 100 nM): 1.7 fold; FOLD INDUCTION of PXR reporter luciferase activity ([1]; 1 uM): 13.4 fold; FOLD INDUCTION of PXR reporter luciferase activity ([1]; 10 uM): 26.3 fold; FOLD INDUCTION of PXR reporter luciferase activity ([1]; 25 uM): 24.3 fold; FOLD INDUCTION (AZ-AHR luciferase) ([2]; 1 nM): 0.7 fold; FOLD INDUCTION (AZ-AHR luciferase) ([2]; 10 nM): 0.746 fold; FOLD INDUCTION (AZ-AHR luciferase) ([2]; 100 nM): 1.1 fold; FOLD INDUCTION (AZ-AHR luciferase) ([2]; 1µM): 0.9 fold; FOLD INDUCTION (AZ-AHR luciferase) ([2]; 10 µM): 2.8 fold
"O=C(c1ccncc1)c1cc2ccccc2n1S(=O)(=O)c1ccccc1 [FKK5, (1-(phenylsulfonyl)-1H-indol-2-yl)(pyridin-4-yl)methanone]",4417.0,4539.3,4741.5,29157.3,116028.0,119010.3,increased cytoplasmic,1.4,1.4,1.5,9.1,36.4,37.3,0.755,0.8,0.7,0.7,1.2,"MDR1 Fold Expression (2-ΔΔCt) ([3]; relative to DMSO = 1, each column a repeat experiment (Fig 1d)): 3.894 and 3.803 and 2.576 and 4.071"
C#CCC(O)(c1ccncc1)c1cc2ccccc2n1S(=O)(=O)c1ccccc1 (centres unmarked) [FKK6],5692.0,9322.0,9089.3,73854.3,113299.3,99812.0,increased cytoplasmic,1.8,2.9,2.8,23.1,35.5,31.3,0.8,0.7,0.8,1.1,3.2,PXR occupancy of proximal CYP3A4 and MDR1 promoter (semi-quantitative ChIP) [3]: augmented PXR occupancy; PXR activation (in words) ([1]; cell-based transactivation): activated human PXR
